The test system of the test is MIA-induced osteoarthritis in Sprague-Dawley rats. Kind of test: Pain sensitivity (paw withdrawal / compression threshold, Randall-Salitto) in MIA-induced OA model. It counts as in vivo, rat. Particulars: Diclofenac 10, UP1306 400, UP446 250, Composition 650 mg/kg; for Compression threshold (Mean ± SD): oral.

Marks after values point to notes of the source that are not given here.

As to `O=C(O)Cc1ccccc1Nc1c(Cl)cccc1Cl` [Diclofenac], the “Percent change of vehicle, Pain sensitivity inhibition” value runs as follows: (Baseline) 0.9%; (Week-1) 40.4* %; (Week-2) 28.8* %; (Week-3) 31.2* %; (Week-4) 30.8* %; (Week-5) 31.0* %. In addition, the “Compression threshold (Mean ± SD)” value reads like this: (Baseline) 244.1 ± 3.8; (Week-1) 190.8 ± 1.1; (Week-2) 171.8 ± 0.6; (Week-3) 170.1 ± 2.2; (Week-4) 171.6 ± 0.6; (Week-5) 170.9 ± 1.1.

Values taken from patent US12042523B2, “Compositions and methods for managing or improving bone disorders, joint disorders, cartilage disorders, or a combination thereof” (Unigen, Inc., priority 2014, dated 2024).
